Measurements from US10206911B2, “Androgen receptor variants and methods for making and using” (MEMORIAL SLOAN-KETTERING CANCER CENTER, priority 2012, dated 2019).
Changes are numbered by the printed parent chain. Entries after “also recorded” stand apart in the source; their conditions may differ.

Legend:
[1] = target: T1, AR F876L (Homo sapiens, UniProt P10275, DEL79-80/DUP473-473/F877L); experiment: EGFP reporter assay of AR activity, LNCaP-Pb.PSE.EGFP cells, flow cytometry; assay type: cell-based; conditions: 10 μM, 4 days of treatment
T1 construct: expressed in transfected cells
T1 sequence (P10275 with tags, fused parts or gaps DEL79-80/DUP473-473/F877L): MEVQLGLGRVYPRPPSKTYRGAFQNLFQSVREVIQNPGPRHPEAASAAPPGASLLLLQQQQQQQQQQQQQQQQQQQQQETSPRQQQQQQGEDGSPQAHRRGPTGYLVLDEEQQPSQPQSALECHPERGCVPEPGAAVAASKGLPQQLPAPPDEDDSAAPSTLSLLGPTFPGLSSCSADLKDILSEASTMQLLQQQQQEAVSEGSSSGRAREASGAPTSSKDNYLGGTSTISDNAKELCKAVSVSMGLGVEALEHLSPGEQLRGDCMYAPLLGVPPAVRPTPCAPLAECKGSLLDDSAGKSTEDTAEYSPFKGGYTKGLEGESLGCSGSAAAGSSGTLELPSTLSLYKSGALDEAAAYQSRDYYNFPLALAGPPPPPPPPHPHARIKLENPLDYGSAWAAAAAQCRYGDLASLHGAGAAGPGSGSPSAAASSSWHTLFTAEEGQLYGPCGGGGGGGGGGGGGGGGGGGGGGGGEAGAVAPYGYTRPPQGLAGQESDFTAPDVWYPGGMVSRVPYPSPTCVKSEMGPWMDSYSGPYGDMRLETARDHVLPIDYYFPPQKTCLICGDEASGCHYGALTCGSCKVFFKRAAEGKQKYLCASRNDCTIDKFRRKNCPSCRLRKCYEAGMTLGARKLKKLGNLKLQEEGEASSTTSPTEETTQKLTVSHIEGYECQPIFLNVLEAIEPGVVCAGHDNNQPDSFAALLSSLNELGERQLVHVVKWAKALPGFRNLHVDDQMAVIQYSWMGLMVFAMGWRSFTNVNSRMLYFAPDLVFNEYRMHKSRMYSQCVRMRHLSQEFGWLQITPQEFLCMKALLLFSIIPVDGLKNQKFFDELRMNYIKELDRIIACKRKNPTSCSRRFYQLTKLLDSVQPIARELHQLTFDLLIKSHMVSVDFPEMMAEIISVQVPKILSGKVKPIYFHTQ
From the text: (§1) This clone was used for all flow cytometry assays and for the FACS-based resistance screens.

[2] = target: T2, AR WT (Homo sapiens, UniProt P10275, DEL79-80/DUP473-473); experiment: as above; assay type: cell-based; conditions: 10 μM, 4 days of treatment
T2 construct: expressed in transfected cells; host or cells: LNCaP-Pb.PSE.EGFP (pantropic retroviral infection, blasticidin selection)
T2 sequence (P10275 with tags, fused parts or gaps DEL79-80/DUP473-473): T1 sequence (P10275 with tags, fused parts or gaps DEL79-80/DUP473-473/F877L) with L876F
From the text: as §1

[3] = system: VCaP cells overexpressing AR WT; experiment: VCaP growth assay (CellTiter-GLO); assay type: cell-based, human; conditions: full-serum containing media, 10 μM
[4] = system: VCaP cells overexpressing AR F876L; experiment: VCaP growth assay (CellTiter-GLO); assay type: cell-based, human; conditions: full-serum containing media, 10 μM
[5] = system: AR mutants isolated from drug resistant LNCaP/AR xenograft tumors; experiment: Luciferase reporter assay of AR activity in androgen depleted media, CV1 cells; assay type: cell-based, human; conditions: 10 μm antiandrogen
[6] = system: AR mutants isolated from drug resistant LNCaP/AR xenograft tumors; experiment: EGFP reporter assay of AR activity, LNCaP/Pb.PSE.EGFP cells; assay type: cell-based, human; conditions: androgen containing media, 10 μM antiandrogen
Method: Additionally, EGFP reporter assays of AR activity in cells expressing the indicated AR mutants were performed and the data are presented in FIG. 21A and FIG. 21B.

[7] = system: AR mutants isolated from drug resistant CWR22Pc cells; experiment: EGFP reporter assay and qRT-PCR, LNCaP/Pb.PSE.EGFP cells; assay type: cell-based, human; conditions: 10 μM antiandrogen; variable degrees, gene-specific differences
[8] = system: DU145 (an AR null human prostate cancer cell line); experiment: DU145 cell viability (CellTiterGLO); assay type: cell-based; conditions: 10 μM, full serum containing media
Method: DU145 cells were cultured in full serum containing media with 10 uM of the indicated antiandrogens. CellTiterGLO assay was performed on days 0, 3, and 6 to determine cell viability. RLU=relative light units.

In the case of CNC(=O)c1ccc(N2C(=S)N(c3ccc(C#N)c(C(F)(F)F)c3)C(=O)C23CC(C)(C)CC(C)(C)C3)cc1F [DR105, 4-(3-(4-cyano-3-(trifluoromethyl)phenyl)-7,7,9,9-tetramethyl-4-oxo-2-thioxo-1,3-diazaspiro[4.5]decan-1-yl)-2-fluoro-N-methylbenzamide], the “Effect on transcriptional activity of AR F876L in EGFP reporter assay (agonism or antagonism)” value [1] is reported as “effectively antagonized; also recorded: inhibited” and the “Effect on transcriptional activity of AR WT in EGFP reporter assay (agonism or antagonism)” value [2] is reported as “effectively antagonized; also recorded: inhibited”.
With CNC(=O)c1ccc(N2C(=S)N(c3cnc(C#N)c(C(F)(F)F)c3)C(=O)C23CCCC(C)(C)C3)cc1F (racemic) [(±)-DR106, 4-(3-(6-cyano-5-(trifluoromethyl)pyridin-3-yl)-7,7-dimethyl-4-oxo-2-thioxo-1,3-diazaspiro[4.5]decan-1-yl)-2-fluoro-N-methylbenzamide] the “Effect on transcriptional activity of AR F876L in EGFP reporter assay (agonism or antagonism)” value [1] was “effectively antagonized; also recorded: AR F876L inhibition” and the “Effect on transcriptional activity of AR WT in EGFP reporter assay (agonism or antagonism)” value [2] was “effectively antagonized”.
For CNC(=O)c1ccc(N2CC(=O)N(c3ccc(C#N)c(C(F)(F)F)c3)C2=S)cc1F [DR107, 4-(3-(4-cyano-3-(trifluoromethyl)phenyl)-4-oxo-2-thioxoimidazolidin-1-yl)-2-fluoro-N-methylbenzamide], the “Effect on transcriptional activity of AR F876L in EGFP reporter assay (agonism or antagonism)” value [1] was “agonist” and the “Effect on transcriptional activity of AR WT in EGFP reporter assay (agonism or antagonism)” value [2] was “agonist”.
CNC(=O)c1ccc(N2C(=S)N(c3ccc(C#N)c(C(F)(F)F)c3)C(=O)C23CCCCC3)cc1F [DR101, 4-(3-(4-cyano-3-(trifluoromethyl)phenyl)-4-oxo-2-thioxo-1,3-diazaspiro[4.5]decan-1-yl)-2-fluoro-N-methylbenzamide] was tested, and the “Effect on transcriptional activity of AR F876L in EGFP reporter assay (agonism or antagonism)” value [1] was “agonist”, the “Growth of VCaP cells, AR WT” value [3] was “only inhibit the growth of VCaP/AR WT” and the “Growth of VCaP cells overexpressing AR F876L” value [4] was “did not inhibit cell growth”.
In the case of CNC(=O)c1ccc(N2C(=S)N(c3cnc(C#N)c(C(F)(F)F)c3)C(=O)C23CCC3)cc1F [ARN-509], the “Agonism on AR mutants, luciferase reporter” value [5] is reported as “none of the mutants conferred agonism”, the “Sensitivity of AR mutants, EGFP reporter” value [6] is reported as “still remained sensitive” and the “Sensitivity of AR mutants, EGFP reporter assay & qRT-PCR” value [7] is reported as “still remained sensitive”.
CNC(=O)c1ccc(N2C(=S)N(c3ccc(C#N)c(C(F)(F)F)c3)C(=O)C23CCC(C)(C)CC3)cc1F [DR104, 4-(3-(4-cyano-3-(trifluoromethyl)phenyl)-8,8-dimethyl-4-oxo-2-thioxo-1,3-diazaspiro[4.5]decan-1-yl)-2-fluoro-N-methylbenzamide] was tested, and the “Effect on transcriptional activity of AR F876L in EGFP reporter assay (agonism or antagonism)” value [1] was “modest agonist”, the “Effect on transcriptional activity of AR WT in EGFP reporter assay (agonism or antagonism)” value [2] was “antagonist” and the “Proliferation of DU145 cells” value [8] was “no significant growth inhibition”.
